The inhibition is the drop in the measured response relative to a control, in per cent.

Read-outs that look alike come from different tables or passages of the source.

From patent US20190290574A1, “TOPICAL SKIN CARE COMPOSITIONS COMPRISING MYRSINE AFRICANA EXTRACTS” (University of Pretoria, priority 2015, published 2019) come the findings set out here.

One series relates to human skin. Briefly: Irritancy patch test. The method, then: A sample of the ethanol extract was applied on the inner forearm of twenty (20) volunteers aged between 19-65 years using patch discs for 24 hours to determine irritancy. Visual assessments of the areas were made after 24, 48, 72 and 96 hours. Any reaction was graded as a score of 0, 0.5, 1, 2, 3, and 4, where 0 represented a no response and 4 a fiery redness, papules, oedema or bullae. The forearm of each volunteer included a positive control of sodium lauryl sulphate solution (1 g/100 mL) and a negative control of demineralised water.

Series [1] has as its target T1, porcine pancreatic elastase (Sus scrofa, UniProt P00772).
T1 construct: purchased Sigma E0258; host or cells: porcine pancreas (tissue-derived product)
Briefly: Elastase inhibition assay (release of p-nitroaniline from N-Succinyl-Ala-Ala-Ala-p-nitroanilide). The series is classed as biochemical. The settings on record: for inhibition at 5 µg/mL: 5 μg/mL; for inhibition at 10 µg/mL: 10 μg/mL; for inhibition at 25 µg/mL: 25 μg/mL; for inhibition at 50 µg/mL: 50 μg/mL; for IC50: read-out: IC50 (μg/mL) (95% Confidence Interval) (converted).
Procedure: The pancreatic elastase inhibitory activity was determined in vitro by the spectrophotometric determination of the release of p-nitroaniline from a synthetic substrate N-Succinyl-Ala-Ala-Ala-p-nitroanilide.
A sample stock solution of 500 μg/mL and 1120 μg/mL was prepared from M. africana leaf extract and compound respectively. Briefly, 2.5 mg of extract and 2.24 mg of the compound was weighed and dissolved in 100 μL of methanol. The volume was then made up to 5 mL for the extract and to 2 mL for the compound with 100mM Tris-HCl buffer, pH 8.0. Subsequent dilutions for the assay were made as required.
An elastase inhibition assay was carried out largely as per the method of Bieth et al. (1974) with modifications. In brief, a pre-incubation mixture contained 100 mM of either Tris-HCl buffer (pH 8.0), vehicle buffer, positive control, or test sample of various concentrations together with 4.942 mU of elastase enzyme. The reagents were mixed and the mixture was pre-incubated at 37° C. for 15 min. Following pre-incubation, substrate (N-Succinyl-Ala-Ala-Ala-p-nitroanilide) was added to a final concentration of 0.338 mM and the solution was mixed and incubated at 37° C. for 30 min. The absorbance was measured at 405 nm in a micro-plate reader (Versamax, Molecular devices, USA). A control reaction was carried out without the test sample.
The % inhibition of the enzyme was calculated as follows:
IC50 was calculated using log-probit analysis.

The mark [2] stands for this setting: Compound MA-NR-01 run, read-out: % Inhibition (Mean ± SEM).
The mark [3] stands for this setting: MA ethanolic extract run, read-out: % Inhibition (Mean ± SEM).

T1 sequence (P00772 27-266): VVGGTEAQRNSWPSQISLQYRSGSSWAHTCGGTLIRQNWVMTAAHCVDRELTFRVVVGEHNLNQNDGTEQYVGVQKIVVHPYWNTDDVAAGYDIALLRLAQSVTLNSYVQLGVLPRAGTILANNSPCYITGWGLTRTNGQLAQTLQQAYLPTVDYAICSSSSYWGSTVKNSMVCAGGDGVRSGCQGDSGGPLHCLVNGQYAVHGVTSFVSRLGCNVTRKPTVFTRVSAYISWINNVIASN

Take `CCCCCCCCCCCCOS(=O)(=O)[O-].[Na+]` [Positive Control Right, sodium lauryl sulphate]: the “Number of subjects with reactions after 48 hours” value with human skin (20 volunteers, 48 hours) is recorded as 12. Moreover, the Irritancy result with human skin (patch test on human subjects) was “Irritant”. The compound further gave an Average value with human skin (patch test, 20 volunteers, results after 96 hours) of 0.54. Further, the Average score in the series with human skin (patch test, score scale 0-4, results after 96 hours) came to 1.03. In the series on human skin (relative to positive control sodium lauryl sulphate and negative control water), the “Irritancy potential % (TP-NC)/(PC-NC)” value is 100%.
Consider `C[C@H]1[C@H](C)CC[C@]2(C(=O)O)CC[C@]3(C)C(=CC[C@@H]4[C@@]5(C)CC[C@H](O)C(C)(C)[C@@H]5CC[C@]43C)[C@H]12` [Ursolic Acid, ursolic acid], for which the inhibition at 2.5 µg/mL in series [1] (2.5 μg/mL, Compound MA-NR-01 run, read-out: % Inhibition (Mean ± SEM)) was 10.6 ± 0.32%. Also, in series [1] (setting [2]), the inhibition at 5 µg/mL stood at 21.1 ± 0.53%, the inhibition at 10 µg/mL was determined as 40.1 ± 1.22%, the inhibition at 25 µg/mL was found to be 58.85 ± 0.17% and the inhibition at 50 µg/mL turned out to be 62.1 ± 1.18%. Also, in series [1] (setting [3]), the inhibition at 5 µg/mL worked out at 13.2 ± 2.25%, the inhibition at 10 µg/mL was 24.1 ± 4.5%, the inhibition at 25 µg/mL amounted to 41.4 ± 0.92% and the inhibition at 50 µg/mL worked out at 53.2 ± 0.56%. Besides, the IC50 in series [1] (run of Compound MA-NR-01 (right half of Table 1)) was 45.5 µM. Further, the IC50 in series [1] (run of MA ethanolic extract (left half of Table 1)) is 88.9 µM.
For Myrsinoside B [MA-NR-01], the “% Inhibition (Mean ± SEM)” value in series [1] (7.8125 μg/mL, Compound MA-NR-01 run) came to 11.79 ± 4.35%; in series [1] (15.625 μg/mL, Compound MA-NR-01 run) it was 4.79 ± 1.66%; in series [1] (31.25 μg/mL, Compound MA-NR-01 run) it was 6.76 ± 4.57%; in series [1] (62.5 μg/mL, Compound MA-NR-01 run), 5.73 ± 1.04%; in series [1] (125 μg/mL, Compound MA-NR-01 run) it was 13.00±1.04%; in series [1] (250 μg/mL, Compound MA-NR-01 run) it was 25.75 ± 1.46%. In series [1] (500 μg/mL, Compound MA-NR-01 run), the “% Inhibition (Mean ± SEM)” value was 31.02 ± 1.22%.
